Laboratory results taken from US10562878B2, “Cycloalkylamines as monoamine reuptake inhibitors” (Sunovion Pharmaceuticals Inc., priority 2006, dated 2020).
Where two headings read alike, the source gives them in different places.

How the values were obtained:
[1] = system: mice; experiment: Mouse tail suspension test; assay type: in vivo
[2] = molecular target: DA Transporter (DAT) sites in mouse brain (Mus musculus (Mouse), UniProt Q61327); experiment: Ex vivo [3H] WIN 35428 binding to DAT sites in mouse brain after oral dosing; settings: mice, 60 min after treatment; for receptor occupancy at 1 mg/kg / receptor occupancy at 3 mg/kg / receptor occupancy at 10 mg/kg / receptor occupancy at 30 mg/kg: mouse
[3] = molecular target: T1, Norepinephrine Transporter (NET) sites in mouse brain (Mus musculus (Mouse), UniProt O55192); settings: mice, 60 min after treatment
[4] = system: Rats; experiment: Rat forced swim test; assay type: in vivo
[5] = molecular target: 5-HT Transporter (SERT) sites in mouse brain (Mus musculus (Mouse), UniProt Q60857); experiment: Ex vivo [3H] citalopram binding to SERT sites in mouse brain after oral dosing; settings: mice, 60 min after treatment; for receptor occupancy at 1 mg/kg / receptor occupancy at 3 mg/kg / receptor occupancy at 10 mg/kg / receptor occupancy at 30 mg/kg: mouse
[6] = molecular target: T1, Norepinephrine Transporter (NET) sites in mouse brain; experiment: in vivo; settings: po, read-out: NET % Transporter Occupancy
[7] = molecular target: human dopamine transporter (Homo sapiens (Human), UniProt Q01959); experiment: Dopamine functional uptake assay, recombinant human transporter in CHO-K1 or HEK293 cells; assay type: cell-based; settings: read-out: hDAT IC50
Chain of human dopamine transporter (Q01959 whole entry): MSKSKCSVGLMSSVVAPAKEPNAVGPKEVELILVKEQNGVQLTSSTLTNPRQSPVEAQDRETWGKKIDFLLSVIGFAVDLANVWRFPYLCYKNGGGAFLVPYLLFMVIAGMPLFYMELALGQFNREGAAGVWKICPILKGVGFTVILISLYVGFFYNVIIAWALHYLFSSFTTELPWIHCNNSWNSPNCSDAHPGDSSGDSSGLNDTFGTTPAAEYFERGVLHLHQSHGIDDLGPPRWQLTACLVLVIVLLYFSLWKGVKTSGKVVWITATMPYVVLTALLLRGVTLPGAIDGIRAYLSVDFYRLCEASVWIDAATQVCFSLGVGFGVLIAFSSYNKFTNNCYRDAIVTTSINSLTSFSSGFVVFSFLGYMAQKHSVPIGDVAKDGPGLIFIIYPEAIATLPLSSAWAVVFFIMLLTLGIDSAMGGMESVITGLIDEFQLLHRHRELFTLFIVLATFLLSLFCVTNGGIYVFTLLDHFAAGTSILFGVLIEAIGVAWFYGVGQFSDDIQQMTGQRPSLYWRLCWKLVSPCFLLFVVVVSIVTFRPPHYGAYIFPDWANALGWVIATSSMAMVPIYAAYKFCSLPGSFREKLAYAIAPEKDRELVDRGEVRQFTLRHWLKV

[8] = molecular target: human serotonin transporter (Homo sapiens (Human), UniProt P31645); experiment: Serotonin functional uptake assay, recombinant human transporter in HEK-293 cells; assay type: cell-based; settings: Human serotonin transporter uptake; read-out: hSERT IC50
Chain of human serotonin transporter (P31645 whole entry): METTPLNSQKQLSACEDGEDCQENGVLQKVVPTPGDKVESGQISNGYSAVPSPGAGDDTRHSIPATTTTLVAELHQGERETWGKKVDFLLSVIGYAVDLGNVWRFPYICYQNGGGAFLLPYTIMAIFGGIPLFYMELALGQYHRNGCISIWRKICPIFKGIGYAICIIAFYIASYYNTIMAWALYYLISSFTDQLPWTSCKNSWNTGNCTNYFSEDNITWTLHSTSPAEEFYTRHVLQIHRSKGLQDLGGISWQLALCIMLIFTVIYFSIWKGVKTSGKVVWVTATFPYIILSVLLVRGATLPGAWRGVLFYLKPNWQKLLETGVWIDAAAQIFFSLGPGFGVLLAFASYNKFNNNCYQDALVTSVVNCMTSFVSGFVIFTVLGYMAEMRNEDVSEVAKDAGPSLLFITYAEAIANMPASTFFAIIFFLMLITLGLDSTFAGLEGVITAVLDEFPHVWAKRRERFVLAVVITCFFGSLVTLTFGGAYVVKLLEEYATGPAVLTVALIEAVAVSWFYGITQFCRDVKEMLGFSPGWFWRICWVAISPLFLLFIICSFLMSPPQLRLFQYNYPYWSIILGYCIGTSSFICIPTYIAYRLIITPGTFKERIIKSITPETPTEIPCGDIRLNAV

CN(C)C[C@]1(c2ccc3ccccc3c2)CCCC[C@H]1O (relative stereo) [164 E2, trans-2-((dimethylamino)methyl)-2-(naphthalen-2-yl)cyclohexanol]
Mouse Tail Suspension Mean Immobility Time ± S.E.M. ([1]; 30 mg/kg PO): 141.8 ± 6.0

CC(N(C)C)C1(c2ccc3ccccc3c2)CCCCC1 (single isomer, unassigned) [56 E1, N,N-dimethyl-1-(1-(naphthalen-2-yl)cyclohexyl)ethanamine]
DAT Mean Specific Binding ± S.E.M. ([2]; 1 mg/kg PO): 41561 ± 1611 dpm | DAT Mean Specific Binding ± S.E.M. ([2]; 3 mg/kg PO): 42127 ± 2130 dpm | DAT Mean Specific Binding ± S.E.M. ([2]; 10 mg/kg PO): 33478 ± 1779 dpm | DAT Mean Specific Binding ± S.E.M. ([2]; 30 mg/kg PO): 14637 ± 1567 dpm | receptor occupancy at 1 mg/kg ([2]; 1 mg/kg PO): 5% | receptor occupancy at 3 mg/kg ([2]; 3 mg/kg PO): 4% | receptor occupancy at 10 mg/kg ([2]; 10 mg/kg PO): 23% | receptor occupancy at 30 mg/kg ([2]; 30 mg/kg PO): 67% | NET Mean Specific Binding ± S.E.M. ([3]; 1 mg/kg PO): 616 ± 50 dpm | NET Mean Specific Binding ± S.E.M. ([3]; 3 mg/kg PO): 368 ± 17 dpm | NET Mean Specific Binding ± S.E.M. ([3]; 10 mg/kg PO): 106 ± 20 dpm | NET Mean Specific Binding ± S.E.M. ([3]; 30 mg/kg PO): 19 ± 2 dpm | Rat Forced Swim Climbing (Means ± S.E.M.) ([4]; 3 mg/kg PO): 7.1 ± 1.6 | Rat Forced Swim Immobility (Means ± S.E.M.) ([4]; 3 mg/kg PO): 52.2 ± 1.6 | Rat Forced Swim Swimming (Means ± S.E.M.) ([4]; 3 mg/kg PO): 0.3 ± 0.2 | Rat Forced Swim Climbing (Means ± S.E.M.) ([4]; 10 mg/kg PO): 8.6 ± 0.9 | Rat Forced Swim Immobility (Means ± S.E.M.) ([4]; 10 mg/kg PO): 50.7 ± 1.0 | Rat Forced Swim Swimming (Means ± S.E.M.) ([4]; 10 mg/kg PO): 0.8 ± 0.3 | Rat Forced Swim Climbing (Means ± S.E.M.) ([4]; 30 mg/kg PO): 17.9 ± 2.4 | Rat Forced Swim Immobility (Means ± S.E.M.) ([4]; 30 mg/kg PO): 40.4 ± 2.7 | Rat Forced Swim Swimming (Means ± S.E.M.) ([4]; 30 mg/kg PO): 1.0 ± 0.4 | Mouse Tail Suspension Mean Immobility Time ± S.E.M. ([1]; 10 mg/kg PO): 174.8 ± 6.1 | Mouse Tail Suspension Mean Immobility Time ± S.E.M. ([1]; 30 mg/kg PO): 141.9 ± 7.4 | SERT Mean Specific Binding ± S.E.M. ([5]; 1 mg/kg PO): 2625 ± 138 dpm | SERT Mean Specific Binding ± S.E.M. ([5]; 3 mg/kg PO): 1346 ± 109 dpm | SERT Mean Specific Binding ± S.E.M. ([5]; 10 mg/kg PO): 278 ± 42 dpm | SERT Mean Specific Binding ± S.E.M. ([5]; 30 mg/kg PO): 151 ± 60 dpm | receptor occupancy at 1 mg/kg ([5]; 1 mg/kg PO): 19% | receptor occupancy at 3 mg/kg ([5]; 3 mg/kg PO): 58% | receptor occupancy at 10 mg/kg ([5]; 10 mg/kg PO): 91% | receptor occupancy at 30 mg/kg ([5]; 30 mg/kg PO): 95% | receptor occupancy at 1 mg/kg [6]: 20% | receptor occupancy at 3 mg/kg [6]: 52% | receptor occupancy at 10 mg/kg [6]: 86% | receptor occupancy at 30 mg/kg [6]: 98%

COc1ccc([C@@]2(CN(C)C)CCCC[C@H]2O)cc1 (single isomer, unassigned) [156 E2, trans-2-((dimethylamino)methyl)-2-(4-methoxyphenyl)cyclohexanol]
IC50 [7]: 4000 nM | IC50 [8]: 653 nM

CN(C)C[C@@]1(c2ccc(Cl)c(F)c2)CCCC[C@H]1O (single isomer, unassigned) [157 E1, Cis-2-(4-chloro-3-fluorophenyl)-2-((dimethylamino)methyl)cyclohexanol]
IC50 [7]: 575 nM | IC50 [8]: 1300 nM

CN(C)C[C@@]1(c2ccc(Cl)c(F)c2)CCCC[C@H]1O (single isomer, unassigned) [157 E2, Cis-2-(4-chloro-3-fluorophenyl)-2-((dimethylamino)methyl)cyclohexanol]
IC50 [7]: 849 nM | IC50 [8]: 290 nM

CN(C)C[C@]1(c2ccc(Cl)c(F)c2)CCCC[C@H]1O (single isomer, unassigned) [158 E1, Trans-2-(4-chloro-3-fluorophenyl)-2-((dimethylamino)methyl)cyclohexanol]
IC50 [7]: 945 nM | IC50 [8]: 8440 nM

CN(C)C[C@]1(c2ccc(Cl)c(F)c2)CCCC[C@H]1O (single isomer, unassigned) [158 E2, Trans-2-(4-chloro-3-fluorophenyl)-2-((dimethylamino)methyl)cyclohexanol]
IC50 [7]: 5020 nM | IC50 [8]: 2990 nM

CN(C)C[C@@]1(c2ccc(C(F)(F)F)cc2)CCCC[C@H]1O (single isomer, unassigned) [159 E1, cis-2-((dimethylamino)methyl)-2-(4-(trifluoromethyl)phenyl)cyclohexanol]
IC50 [7]: 3800 nM | IC50 [8]: 1260 nM

CN(C)C[C@@]1(c2ccc(C(F)(F)F)cc2)CCCC[C@H]1O (single isomer, unassigned) [159 E2, cis-2-((dimethylamino)methyl)-2-(4-(trifluoromethyl)phenyl)cyclohexanol]
IC50 [7]: 2310 nM | IC50 [8]: 42 nM

CN(C)C[C@]1(c2ccc(C(F)(F)F)cc2)CCCC[C@H]1O (single isomer, unassigned) [160 E1, trans-2-((dimethylamino)methyl)-2-(4-(trifluoromethyl)phenyl)cyclohexanol]
IC50 [7]: 9720 nM | IC50 [8]: 7190 nM

CN(C)C[C@]1(c2ccc(C(F)(F)F)cc2)CCCC[C@H]1O (single isomer, unassigned) [160 E2, trans-2-((dimethylamino)methyl)-2-(4-(trifluoromethyl)phenyl)cyclohexanol]
IC50 [7]: > 10000 nM | IC50 [8]: 5090 nM

CNCC1(c2ccc3ccccc3c2)CCCCC1 [Compound 93, N-methyl-1-(1-(naphthalen-2-yl)cyclohexyl)methanamine]
Rat Forced Swim Climbing (Means ± S.E.M.) ([4]; 3 mg/kg PO): 9.0 ± 1.3 | Rat Forced Swim Immobility (Means ± S.E.M.) ([4]; 3 mg/kg PO): 44.5 ± 2.5 | Rat Forced Swim Swimming (Means ± S.E.M.) ([4]; 3 mg/kg PO): 6.5 ± 1.6 | Rat Forced Swim Climbing (Means ± S.E.M.) ([4]; 10 mg/kg PO): 12.8 ± 2.2 | Rat Forced Swim Immobility (Means ± S.E.M.) ([4]; 10 mg/kg PO): 41.4 ± 2.8 | Rat Forced Swim Swimming (Means ± S.E.M.) ([4]; 10 mg/kg PO): 6.9 ± 1.3 | Rat Forced Swim Climbing (Means ± S.E.M.) ([4]; 30 mg/kg PO): 22.2 ± 3.5 | Rat Forced Swim Immobility (Means ± S.E.M.) ([4]; 30 mg/kg PO): 25.8 ± 5.4 | Rat Forced Swim Swimming (Means ± S.E.M.) ([4]; 30 mg/kg PO): 12.0 ± 2.1 | Mouse Tail Suspension Mean Immobility Time ± S.E.M. ([1]; 30 mg/kg PO): 162.0 ± 8.1

CO[C@@H]1CCC[C@@](CN)(c2ccc(Cl)c(Cl)c2)C1 [Compound 192]
IC50 [7]: 1960 nM | IC50 [8]: > 10000 nM

CNCC1(c2ccc(Cl)c(Cl)c2)CCC(C)(O)CC1 (centres unmarked) [Compound 276, 4-(3,4-dichlorophenyl)-1-methyl-4-((methylamino)methyl)cyclohexanol]
DAT Mean Specific Binding ± S.E.M. ([2]; 3 mg/kg PO): 16312 ± 2396 dpm | DAT Mean Specific Binding ± S.E.M. ([2]; 10 mg/kg PO): 15879 ± 2265 dpm | DAT Mean Specific Binding ± S.E.M. ([2]; 30 mg/kg PO): 10397 ± 931 dpm | receptor occupancy at 1 mg/kg ([2]; 1 mg/kg PO): -21% | receptor occupancy at 3 mg/kg ([2]; 3 mg/kg PO): -9% | receptor occupancy at 10 mg/kg ([2]; 10 mg/kg PO): -6% | receptor occupancy at 30 mg/kg ([2]; 30 mg/kg PO): 31% | NET Mean Specific Binding ± S.E.M. ([3]; 1 mg/kg PO): 1602 ± 51 dpm | NET Mean Specific Binding ± S.E.M. ([3]; 3 mg/kg PO): 1631 ± 92 dpm | NET Mean Specific Binding ± S.E.M. ([3]; 10 mg/kg PO): 1553 ± 27 dpm | NET Mean Specific Binding ± S.E.M. ([3]; 30 mg/kg PO): 1138 ± 59 dpm | IC50 [7]: 71 nM | SERT Mean Specific Binding ± S.E.M. ([5]; 1 mg/kg PO): 3743 ± 199 dpm | SERT Mean Specific Binding ± S.E.M. ([5]; 3 mg/kg PO): 3685 ± 292 dpm | SERT Mean Specific Binding ± S.E.M. ([5]; 10 mg/kg PO): 3092 ± 207 dpm | SERT Mean Specific Binding ± S.E.M. ([5]; 30 mg/kg PO): 1558 ± 169 dpm | receptor occupancy at 1 mg/kg ([5]; 1 mg/kg PO): 12% | receptor occupancy at 3 mg/kg ([5]; 3 mg/kg PO): 14% | receptor occupancy at 10 mg/kg ([5]; 10 mg/kg PO): 28% | receptor occupancy at 30 mg/kg ([5]; 30 mg/kg PO): 64% | receptor occupancy at 1 mg/kg [6]: -4% | receptor occupancy at 3 mg/kg [6]: -6% | receptor occupancy at 10 mg/kg [6]: -1% | receptor occupancy at 30 mg/kg [6]: 26%

CN(C)CC1(c2ccc(Cl)c(Cl)c2)CCC(C)(O)CC1 (centres unmarked) [Compound 277, 4-(3,4-dichlorophenyl)-4-((dimethylamino)methyl)-1-methylcyclohexanol]
DAT Mean Specific Binding ± S.E.M. ([2]; 1 mg/kg PO): 35827 ± 2302 dpm | DAT Mean Specific Binding ± S.E.M. ([2]; 3 mg/kg PO): 34136 ± 4104 dpm | DAT Mean Specific Binding ± S.E.M. ([2]; 10 mg/kg PO): 33230 ± 2807 dpm | DAT Mean Specific Binding ± S.E.M. ([2]; 30 mg/kg PO): 31743 ± 4406 dpm | receptor occupancy at 1 mg/kg ([2]; 1 mg/kg PO): 17% | receptor occupancy at 3 mg/kg ([2]; 3 mg/kg PO): 21% | receptor occupancy at 10 mg/kg ([2]; 10 mg/kg PO): 23% | receptor occupancy at 30 mg/kg ([2]; 30 mg/kg PO): 26% | NET Mean Specific Binding ± S.E.M. ([3]; 1 mg/kg PO): 950 ± 46 dpm | NET Mean Specific Binding ± S.E.M. ([3]; 3 mg/kg PO): 824 ± 30 dpm | NET Mean Specific Binding ± S.E.M. ([3]; 10 mg/kg PO): 533 ± 25 dpm | NET Mean Specific Binding ± S.E.M. ([3]; 30 mg/kg PO): 294 ± 42 dpm | IC50 [7]: 41 nM | SERT Mean Specific Binding ± S.E.M. ([5]; 1 mg/kg PO): 1508 ± 86 dpm | SERT Mean Specific Binding ± S.E.M. ([5]; 3 mg/kg PO): 1491 ± 75 dpm | SERT Mean Specific Binding ± S.E.M. ([5]; 10 mg/kg PO): 1416 ± 43 dpm | SERT Mean Specific Binding ± S.E.M. ([5]; 30 mg/kg PO): 1384 ± 101 dpm | receptor occupancy at 1 mg/kg ([5]; 1 mg/kg PO): -6% | receptor occupancy at 3 mg/kg ([5]; 3 mg/kg PO): -5% | receptor occupancy at 10 mg/kg ([5]; 10 mg/kg PO): 0% | receptor occupancy at 30 mg/kg ([5]; 30 mg/kg PO): 3% | receptor occupancy at 1 mg/kg [6]: 6% | receptor occupancy at 3 mg/kg [6]: 18% | receptor occupancy at 10 mg/kg [6]: 47% | receptor occupancy at 30 mg/kg [6]: 71%

CNC[C@]1(c2ccc(Cl)c(Cl)c2)CC[C@H](O)CC1 [Compound 287, cis-4-(3,4-dichlorophenyl)-4-((methylamino)methyl)cyclohexanol]
IC50 [7]: 192 nM | IC50 [8]: 1040 nM

CCN(C)[C@H]1CC[C@@](CN)(c2ccc(Cl)c(Cl)c2)CC1 [Compound 290, trans-4-(aminomethyl)-4-(3,4-dichlorophenyl)-N-ethyl-N-methylcyclo-hexanamine]
IC50 [7]: 1390 nM | IC50 [8]: 992 nM
